In PubChem BioAssay AID330 (DTP/NCI, 2004):
“And” between values parts separate entries of the source, which are not always exact repeats. Identical values can stand only once. Toxic doses and inconclusive results are not listed.

Tested on: P388 leukemia ip, CD2F1 mice, survival T/C
Experiment: NCI In Vivo Anticancer Drug Screen. Data for tumor model P388 Leukemia (intraperitoneal) in CD2F1 (CDF1) mice
Conditions: endpoint: median survival time, higher = longer survival
Summary of the method: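 Mice carrying the transplanted tumor received test compound or vehicle. Survival was recorded in each group, and the value is the treated-group measurement divided by that of the vehicle-treated control group.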

[1] = dose: 50.0 mg/kg/injection, schedule: Q01DX005 (ip), vehicle: saline with Tween-80
[2] = dose: 200.0 mg/kg/injection, schedule: Q01DX005 (ip), vehicle: saline with Tween-80

In the case of O=C(CNOCc1ccccc1)OCc1ccccc1, the T/C (dose: 12.5 mg/kg/injection, schedule: Q01DX009 (ip), vehicle: other) is reported as 88 % of control, the T/C (dose: 25.0 mg/kg/injection, schedule: Q01DX009 (ip), vehicle: other) is reported as 96 % of control and the T/C (dose: 50.0 mg/kg/injection, schedule: Q01DX009 (ip), vehicle: other) is reported as 99 % of control. For the same molecule, the T/C (dose: 100.0 mg/kg/injection, schedule: Q01DX009 (ip), vehicle: other) was 97 % of control and the T/C (dose: 200.0 mg/kg/injection, schedule: Q01DX009 (ip), vehicle: other) was 108 % of control.
For COCCOC(C)C(=O)C(O)S(=O)(=O)O (centres undefined), the T/C (dose: 100.0 mg/kg/injection, schedule: Q01DX009 (ip), vehicle: saline) was 109 % of control, the T/C (dose: 100.0 mg/kg/injection, schedule: Q04DX003 (ip), vehicle: saline) was 100 % of control and the T/C (dose: 200.0 mg/kg/injection, schedule: Q04DX003 (ip), vehicle: saline) was 100 % of control. For the same molecule, the T/C (dose: 400.0 mg/kg/injection, schedule: Q01DX009 (ip), vehicle: saline) was 154 % of control and the T/C (dose: 400.0 mg/kg/injection, schedule: Q04DX003 (ip), vehicle: saline) was 107 % of control.
NC(CCCCNC1CCCCC1)C(=O)O (centres undefined) was tested, and the T/C (dose: 100.0 mg/kg/injection, schedule: Q01DX009 (ip), vehicle: saline with Tween-80) was 106 % of control, the T/C (dose: 200.0 mg/kg/injection, schedule: Q01DX009 (ip), vehicle: saline with Tween-80) was 105 % of control and the T/C (dose: 400.0 mg/kg/injection, schedule: Q01DX009 (ip), vehicle: saline with Tween-80) was 100 % of control.
For CC(C)CC(NC(=O)C(CS)NC(=O)CN1C(=O)CCC1=O)C(N)=O (centres undefined), the T/C (dose: 50.0 mg/kg/injection, schedule: Q01DX005 (ip), vehicle: Klucel (hydroxypropylcellulose) (HPC)) was 105 % of control, the T/C (dose: 100.0 mg/kg/injection, schedule: Q01DX005 (ip), vehicle: Klucel (hydroxypropylcellulose) (HPC)) was 100 % of control and the T/C (dose: 200.0 mg/kg/injection, schedule: Q01DX005 (ip), vehicle: Klucel (hydroxypropylcellulose) (HPC)) was 101 % of control.
For COC(=O)C1(OC(=O)CCC(=O)O)C(=O)NC2=C1C(=O)c1ccccc1C2=O (centres undefined), the T/C [1] was 109 % of control and 119 % of control and the T/C [2] was 111 % of control and 113 % of control.
For O=C(Cc1ccccn1)c1ccccc1, the T/C (dose: 100.0 mg/kg/injection, schedule: Q01DX009 (ip), vehicle: Klucel (hydroxypropylcellulose) (HPC)) was 109 % of control, the T/C (dose: 200.0 mg/kg/injection, schedule: Q01DX009 (ip), vehicle: Klucel (hydroxypropylcellulose) (HPC)) was 108 % of control and the T/C (dose: 400.0 mg/kg/injection, schedule: Q01DX009 (ip), vehicle: Klucel (hydroxypropylcellulose) (HPC)) was 110 % of control.
With COc1ccc(Br)cc1-c1cc2cccc[n+]2o1 the T/C (dose: 12.5 mg/kg/injection, schedule: Q01DX009 (ip), vehicle: saline) was 101 % of control and the T/C (dose: 25.0 mg/kg/injection, schedule: Q01DX009 (ip), vehicle: saline) was 109 % of control.
For Cc1ccc(S(=O)(=O)Oc2ccc3oc4cccc(NCCN(C)C)c4c(=O)c3c2)cc1, the T/C [1] was 95 % of control, the T/C (dose: 100.0 mg/kg/injection, schedule: Q01DX005 (ip), vehicle: saline with Tween-80) was 97 % of control and the T/C [2] was 93 % of control.
With CC1=CC2OC3CC(OC(=O)/C=C/C=C/C(O)C(C)O)C(C)(C2(C)CC1)C31CO1 (centres undefined) the T/C (dose: 0.16 mg/kg/injection, schedule: Q01DX009 (ip), vehicle: saline + alcohol) was 109 % of control, the T/C (dose: 0.31 mg/kg/injection, schedule: Q01DX009 (ip), vehicle: saline + alcohol) was 113 % of control and the T/C (dose: 0.62 mg/kg/injection, schedule: Q01DX009 (ip), vehicle: saline + alcohol) was 109 % of control. For the same molecule, the T/C (dose: 1.25 mg/kg/injection, schedule: Q01DX009 (ip), vehicle: saline + alcohol) was 109 % of control, the T/C (dose: 2.5 mg/kg/injection, schedule: Q01DX009 (ip), vehicle: saline + alcohol) was 120 % of control and the T/C (dose: 5.0 mg/kg/injection, schedule: Q01DX009 (ip), vehicle: saline + alcohol) was 123 % of control.
For COC(=O)C12CN3CC(C)(C1)C(=O)C(C)(C3)C2=O (centres undefined), the T/C (dose: 30.0 mg/kg/injection, schedule: Q01DX005 (ip), vehicle: Klucel (hydroxypropylcellulose) (HPC)) was 100 % of control, the T/C (dose: 60.0 mg/kg/injection, schedule: Q01DX005 (ip), vehicle: Klucel (hydroxypropylcellulose) (HPC)) was 103 % of control and 107 % of control and the T/C (dose: 120.0 mg/kg/injection, schedule: Q01DX005 (ip), vehicle: Klucel (hydroxypropylcellulose) (HPC)) was 107 % of control. The T/C (dose: 240.0 mg/kg/injection, schedule: Q01DX005 (ip), vehicle: Klucel (hydroxypropylcellulose) (HPC)) was 89 % of control.
With O=[N+]([O-])c1ccc(N2CCN(CCO)CC2)c2c1no[n+]2[O-] the T/C (dose: 3.75 mg/kg/injection, schedule: Q01DX009 (ip), vehicle: saline) was 98 % of control and 100 % of control and 86 % of control, the T/C (dose: 7.5 mg/kg/injection, schedule: Q01DX009 (ip), vehicle: saline) was 100 % of control and 97 % of control and the T/C (dose: 15.0 mg/kg/injection, schedule: Q01DX009 (ip), vehicle: saline) was 103 % of control (2×) and 90 % of control. The T/C (dose: 30.0 mg/kg/injection, schedule: Q01DX009 (ip), vehicle: saline) was 100 % of control and 101 % of control and 95 % of control and the T/C (dose: 50.0 mg/kg/injection, schedule: Q01DX009 (ip), vehicle: suspension in saline) was 109 % of control.
CCOc1ccc(-n2c(=O)c(N=Nc3ccc(OC)cc3)c(O)n(-c3ccccc3Cl)c2=S)cc1 was tested, and the T/C (dose: 50.0 mg/kg/injection, schedule: Q01DX001 (ip), vehicle: Klucel (hydroxypropylcellulose) (HPC)) was 97 % of control, the T/C (dose: 100.0 mg/kg/injection, schedule: Q01DX001 (ip), vehicle: Klucel (hydroxypropylcellulose) (HPC)) was 94 % of control and the T/C (dose: 200.0 mg/kg/injection, schedule: Q01DX001 (ip), vehicle: Klucel (hydroxypropylcellulose) (HPC)) was 94 % of control.
